Assays:
MCF7/ERα Y537S cells = test: Inhibitory activity on proliferation of ERα mutant-expressing MCF7 cells; format: cell-based; conditions: Homo sapiens, 144 h, 6 days incubation, CellTiter-Glo, read-out: IC50 (nM), inhibition of proliferation of ERα mutant-expressing MCF7 cells
Procedure: The objective of this experiment was to determine the inhibitory activity of the compounds of the present disclosure on the proliferation of ERα mutant-expressing MCF7 cells.
(§1) MCF7 cells expressing the ERα Y537S mutant were constructed by lentiviral infection. MCF7/ERα Y537S cells were cultured in an MEM (GE Healthcare, SH30024.01) complete medium containing 10% fetal bovine serum and 1 g/mL puromycin. On day 1 of the experiment, cells were seeded into a 96-well plate at a density of 3,000 cells/well using MEM containing 2% fetal bovine serum, with each well containing 135 µL of cell suspension. The plate was incubated in a 37° C., 5% CO2 cell incubator overnight. The next day, different concentrations of test compounds prepared in media were added at 15 μL/well. The final concentrations of the compounds were 9 concentration points obtained by 4-fold serial dilution from 1000 nM. A blank control containing 0.5% DMSO was set up. The plate was incubated in a 37° C., 5% CO2 cell incubator for 6 days. On day 8, the 96-well cell culture plate was taken out, and CellTiter-Glo® Luminescent Cell Viability Assay (Promega, G7573) was added at 75 µL/well. After the plate was left at room temperature for 10 min, luminescence signal readings were taken on a multilabel microplate reader (PerkinElmer, VICTOR 3). The IC50 values for the inhibitory activity of the compounds were calculated from the concentrations of the compounds and the luminescence signal readings using Graphpad Prism software.

MCF7 cells = test: Inhibitory effects on MCF7 cell proliferation (CellTiter-Glo); format: cell-based; conditions: Homo sapiens, 144 h, 6 days incubation, read-out: IC50 (nM), inhibition of MCF7 cell proliferation
Procedure: as §1, with “(TCHu74, National Collection of Authenticated Cell Cultures)” for “expressing the ERα Y537S mutant were constructed by lentiviral infection. MCF7/ERα Y537S cells”, “serum.” for “serum and 1 g/mL puromycin.”, “experiment, MCF7” for “experiment,”, “μL” for “µL”, “μL/well.” for “µL/well.”

IC50 (MCF7/ERα Y537S cells) | IC50 (MCF7 cells) | SMILES
8.35 nM | 1.56 nM | O=C1CCC(N2Cc3cc(N4CCN(CC5CCN(c6ccc([C@@H]7c8ccc(O)cc8CCC78CCCC8)cc6F)CC5)CC4)ccc3C2=O)C(=O)N1 (stereo in doubt) [Example 36, (S)-3-(5-(4-((1-(2-Fluoro-4-((R)-6′-hydroxy-3′,4′-dihydro-1′H-spiro[cyclopentane-1,2′-naphthalen]-1′-yl)phenyl)piperidin-4-yl)methyl)piperazin-1-yl)-1-oxoisoindolin-2-yl)piperidine-2,6-dione]
14.9 nM | 6.15 nM | O=C1CCC(N2Cc3cc(N4CCN(CC5CCN(c6ccc(C7c8ccc(O)cc8CCC78CCCC8)cc6)CC5)CC4)ccc3C2=O)C(=O)N1 (centres unmarked) [Example 1, 3-(5-(4-((1-(4-(6′-Hydroxy-3′,4′-dihydro-1′H-spiro[cyclopentane-1,2′-naphthalen]-1′-yl)phenyl)piperidin-4-yl)methyl)piperazin-1-yl)-1-oxoisoindolin-2-yl)piperidine-2,6-dione]
3.31 nM | 0.67 nM | O=C1CCC(N2Cc3cc(N4CCN(CC5CCN(c6ccc(C7c8ccc(O)cc8CC[C@@H]7C7CCOCC7)cc6)CC5)CC4)ccc3C2=O)C(=O)N1 (stereo partly drawn) [Example 7, 3-(5-(4-((1-(4-((1,2)-cis-6-Hydroxy-2-(tetrahydro-2H-pyran-4-yl)-1,2,3,4-tetrahydronaphthalen-1-yl)phenyl)piperidin-4-yl)methyl)piperazin-1-yl)-1-oxoisoindolin-2-yl)piperidine-2,6-dione]
92.2 nM | 36.5 nM | O=C1CCC(N2Cc3cc(N4CCN(CC5CCN(c6ccc([C@H]7c8ccc(O)cc8CC[C@H]7C7CCOCC7)cc6)CC5)CC4)ccc3C2=O)C(=O)N1 (stereo partly drawn) [Example 8-2, 3-(5-(4-((1-(4-((1S,2S)-6-Hydroxy-2-(tetrahydro-2H-pyran-4-yl)-1,2,3,4-tetrahydronaphthalen-1-yl)phenyl)piperidin-4-yl)methyl)piperazin-1-yl)-1-oxoisoindolin-2-yl)piperidine-2,6-dione]
8.73 nM | 2.14 nM | O=C1CCC(N2Cc3cc(N4CCN(CC5CCN(c6ccc(C7c8ccc(O)cc8CC[C@@H]7C7CCC(F)(F)CC7)cc6)CC5)CC4)ccc3C2=O)C(=O)N1 (stereo partly drawn) [Example 9, 3-(5-(4-((1-(4-((1,2)-cis-2-(4,4-Difluorocyclohexyl)-6-hydroxy-1,2,3,4-tetrahydronaphthalen-1-yl)phenyl)piperidin-4-yl)methyl)piperazin-1-yl)-1-oxoisoindolin-2-yl)piperidine-2,6-dione]
4.79 nM | 0.83 nM | O=C1CC[C@H](N2Cc3cc(N4CCN(CC5CCN(c6ccc([C@@H]7c8ccc(O)cc8CC[C@@H]7C7CCC7)cc6)CC5)CC4)ccc3C2=O)C(=O)N1 [Example 13-1, (S)-3-(5-(4-((1-(4-((1R,2R)-2-Cyclobutyl-6-hydroxy-1,2,3,4-tetrahydronaphthalen-1-yl)phenyl)piperidin-4-yl)methyl)piperazin-1-yl)-1-oxoisoindolin-2-yl)piperidine-2,6-dione]
24.4 nM | 8.17 nM | O=C1CCC(N2Cc3cc(N4CCN(CC5CCN(c6ccc([C@H]7c8ccc(O)cc8CC[C@H]7C7CCCC7)cc6)CC5)CC4)ccc3C2=O)C(=O)N1 (stereo partly drawn) [Example 14-2, 3-(5-(4-((1-(4-((1S,2S)-2-Cyclopentyl-6-hydroxy-1,2,3,4-tetrahydronaphthalen-1-yl)phenyl)piperidin-4-yl)methyl)piperazin-1-yl)-1-oxoisoindolin-2-yl)piperidine-2,6-dione]
31.4 nM | 14.3 nM | O=C1CCC(N2Cc3cc(N4CCN(CC5CCN(c6ccc([C@H]7c8ccc(O)cc8CC[C@H]7C7CCCCC7)cc6)CC5)CC4)ccc3C2=O)C(=O)N1 (stereo partly drawn) [Example 15-2, 3-(5-(4-((1-(4-((1S,2S)-2-Cyclohexyl-6-hydroxy-1,2,3,4-tetrahydronaphthalen-1-yl)phenyl)piperidin-4-yl)methyl)piperazin-1-yl)-1-oxoisoindolin-2-yl)piperidine-2,6-dione]
14.9 nM | 4.63 nM | O=C1CCC(N2Cc3cc(N4CCN(CC5CCN(c6ccc([C@@H]7c8ccc(O)cc8CC[C@@H]7C7CC7)cc6)CC5)CC4)ccc3C2=O)C(=O)N1 (stereo partly drawn) [Example 16, 3-(5-(4-((1-(4-((1,2)-cis-2-Cyclopropyl-6-hydroxy-1,2,3,4-tetrahydronaphthalen-1-yl)phenyl)piperidin-4-yl)methyl)piperazin-1-yl)-1-oxoisoindolin-2-yl)piperidine-2,6-dione]
7.77 nM | 1.35 nM | O=C1CC[C@H](N2Cc3cc(N4CCN(CC5CCN(c6ccc([C@@H]7c8ccc(O)cc8CC[C@@H]7C7CCC7)cc6F)CC5)CC4)ccc3C2=O)C(=O)N1 [Example 18-1, (S)-3-(5-(4-((1-(4-((1R,2R)-2-Cyclobutyl-6-hydroxy-1,2,3,4-tetrahydronaphthalen-1-yl)-2-fluorophenyl)piperidin-4-yl)methyl)piperazin-1-yl)-1-oxoisoindolin-2-yl)piperidine-2,6-dione]
5.04 nM | 0.87 nM | O=C1CC[C@H](N2Cc3cc(N4CCN(CC5CCN(c6ccc([C@@H]7c8ccc(O)cc8CC[C@@H]7C7CCCC7)cc6F)CC5)CC4)ccc3C2=O)C(=O)N1 [Example 19, (S)-3-(5-(4-((1-(4-((1R,2R)-2-cyclopentyl-6-hydroxy-1,2,3,4-tetrahydronaphthalen-1-yl)-2-fluorophenyl)piperidin-4-yl)methyl)piperazin-1-yl)-1-oxoisoindolin-2-yl)piperidine-2,6-dione]
2.74 nM | 0.73 nM | O=C1CC[C@H](N2Cc3cc(N4CCN(CC5CCN(c6ccc([C@@H]7c8ccc(O)cc8CC[C@@H]7C7CCCCC7)cc6F)CC5)CC4)ccc3C2=O)C(=O)N1 [Example 20, (S)-3-(5-(4-((1-(4-((1R,2R)-2-Cyclohexyl-6-hydroxy-1,2,3,4-tetrahydronaphthalen-1-yl)-2-fluorophenyl)piperidin-4-yl)methyl)piperazin-1-yl)-1-oxoisoindolin-2-yl)piperidine-2,6-dione]
5.66 nM | 1.72 nM | O=C1CC[C@H](N2Cc3cc(N4CCN(CC5CCN(c6ccc([C@@H]7c8ccc(O)cc8CC[C@@H]7C7CC7)cc6F)CC5)CC4)ccc3C2=O)C(=O)N1 [Example 21, (S)-3-(5-(4-((1-(4-((1R,2R)-2-Cyclopropyl-6-hydroxy-1,2,3,4-tetrahydronaphthalen-1-yl)-2-fluorophenyl)piperidin-4-yl)methyl)piperazin-1-yl)-1-oxoisoindolin-2-yl)piperidine-2,6-dione]
9.19 nM | 3.13 nM | O=C1CC[C@H](N2Cc3cc(N4CCN(CC5CCN(c6ccc([C@@H]7c8ccc(O)cc8CCC78CCOCC8)cc6)CC5)CC4)ccc3C2=O)C(=O)N1 [Example 22, (S)-3-(5-(4-((1-(4-((R)-6-Hydroxy-2′,3,3′,4,5′,6′-hexahydro-1H-spiro[naphthalene-2,4′-pyran]-1-yl)phenyl)piperidin-4-yl)methyl)piperazin-1-yl)-1-oxoisoindolin-2-yl)piperidine-2,6-dione]
5.44 nM | 1.21 nM | CC(C)[C@H]1CCc2cc(O)ccc2[C@H]1c1ccc(N2CCC(CN3CCN(c4ccc5c(c4)CN([C@H]4CCC(=O)NC4=O)C5=O)CC3)CC2)cc1 [Example 24, (S)-3-(5-(4-((1-(4-((1R,2R)-6-Hydroxy-2-isopropyl-1,2,3,4-tetrahydronaphthalen-1-yl)phenyl)piperidin-4-yl)methyl)piperazin-1-yl)-1-oxoisoindolin-2-yl)piperidine-2,6-dione]

SMILES | IC50 (MCF7/ERα Y537S cells) | IC50 (MCF7 cells)
O=C1CC[C@H](N2Cc3cc(N4CCN(CC5CCN(c6ccc([C@@H]7c8ccc(O)cc8CC[C@@H]7C7CCOCC7)cc6F)CC5)CC4)ccc3C2=O)C(=O)N1 [Example 5, (S)-3-(5-(4-((1-(2-Fluoro-4-((1R,2R)-6-hydroxy-2-(tetrahydro-2H-pyran-4-yl)-1,2,3,4-tetrahydronaphthalen-1-yl)phenyl)piperidin-4-yl)methyl)piperazin-1-yl)-1-oxoisoindolin-2-yl)piperidine-2,6-dione] | 2.29 nM | 0.72 nM

From US20250099596A1, “TETRAHYDRONAPHTHALENE COMPOUND, AND PREPARATION METHOD THEREFOR AND USE THEREOF IN MEDICINE” (Jiangsu Hengrui Pharmaceuticals Co., Ltd., priority 2021, published 2025)
